Several values for one entry are separate records, joined by “and”; a condition that tells them apart may be missing. Equal values may be shown once. Toxic doses and inconclusive results are not listed. The calls were made as follows: active = survival T/C of 150% or more; inactive = T/C below 125% in these data.
System: CD2F1 mice, L1210 leukemia ip, survival T/C
Assay: NCI In Vivo Anticancer Drug Screen. Data for tumor model L1210 Leukemia (intraperitoneal) in CD2F1 (CDF1) mice
Details: higher = longer survival
Procedure, shortened: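 Mice carrying a transplanted tumor received test compound or vehicle alone. The value is the measurement in the treated group divided by that in the vehicle-treated control group.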

Measured: T/C

N#CCCN=C1C=CC(=C(c2ccccc2)c2ccc(NCCC#N)cc2)C=C1
inactive: endpoint: mean survival time, dose: 100.0 mg/kg/injection, schedule: Q04DX002 (ip), vehicle: saline with Tween-80 103 % of control | endpoint: mean survival time, dose: 200.0 mg/kg/injection, schedule: Q04DX002 (ip), vehicle: saline with Tween-80 103 % of control | endpoint: mean survival time, dose: 400.0 mg/kg/injection, schedule: Q04DX002 (ip), vehicle: saline with Tween-80 107 % of control

Nc1ccccc1NS(=O)(=O)c1ccc(Cl)cc1
inactive: endpoint: mean survival time, dose: 100.0 mg/kg/injection, schedule: Q01DX009 (ip), vehicle: saline with Tween-80 95 % of control | endpoint: mean survival time, dose: 200.0 mg/kg/injection, schedule: Q01DX009 (ip), vehicle: saline with Tween-80 101 % of control | endpoint: mean survival time, dose: 400.0 mg/kg/injection, schedule: Q01DX009 (ip), vehicle: saline with Tween-80 106 % of control

COc1cccc2c1C(=O)c1c(O)c3c(c(O)c1C2=O)C[C@@](O)(C(C)=O)C[C@@H]3OC1CC(N)C(O)C(C)O1 (stereo partly specified)
inactive: endpoint: mean survival time, dose: 0.06 mg/kg/injection, schedule: Q01DX009 (ip), vehicle: saline 103 % of control | endpoint: mean survival time, dose: 0.13 mg/kg/injection, schedule: Q01DX009 (ip), vehicle: saline 103 % of control | endpoint: mean survival time, dose: 0.2 mg/kg/injection, schedule: Q01DX009 (ip), vehicle: saline 105 % of control | endpoint: mean survival time, dose: 0.2 mg/kg/injection, schedule: Q01DX009 (ip), vehicle: water 100 % of control and 103 % of control and 108 % of control | endpoint: mean survival time, dose: 0.25 mg/kg/injection, schedule: Q01DX005 (ip), vehicle: water 101 % of control | endpoint: mean survival time, dose: 0.25 mg/kg/injection, schedule: Q01DX009 (ip), vehicle: saline 113 % of control and 120 % of control and 105 % of control | endpoint: mean survival time, dose: 0.39 mg/kg/injection, schedule: Q01DX009 (ip), vehicle: saline 119 % of control and 106 % of control | endpoint: mean survival time, dose: 0.39 mg/kg/injection, schedule: Q01DX009 (ip), vehicle: water 101 % of control and 110 % of control and 112 % of control | endpoint: mean survival time, dose: 0.5 mg/kg/injection, schedule: Q01DX005 (ip), vehicle: water 117 % of control and 108 % of control and 110 % of control | endpoint: mean survival time, dose: 0.5 mg/kg/injection, schedule: Q04DX003 (ip), vehicle: water 116 % of control and 98 % of control | endpoint: mean survival time, dose: 0.78 mg/kg/injection, schedule: Q01DX009 (ip), vehicle: saline 116 % of control | endpoint: mean survival time, dose: 0.78 mg/kg/injection, schedule: Q01DX009 (ip), vehicle: water 117 % of control and 120 % of control and 103 % of control | endpoint: mean survival time, dose: 1.0 mg/kg/injection, schedule: Q01DX005 (ip), vehicle: water 118 % of control and 112 % of control | endpoint: mean survival time, dose: 1.0 mg/kg/injection, schedule: Q03DX003 (ip), vehicle: saline 119 % of control | endpoint: mean survival time, dose: 1.0 mg/kg/injection, schedule: Q04DX003 (ip), vehicle: water 105 % of control | endpoint: mean survival time, dose: 1.08 mg/kg/injection, schedule: Q04DX003 (ip), vehicle: saline 120 % of control | endpoint: mean survival time, dose: 1.25 mg/kg/injection, schedule: Q07DX Z (oral), vehicle: clinical formulation 97 % of control | endpoint: mean survival time, dose: 1.25 mg/kg/injection, schedule: Q#B X Z (oral), vehicle: clinical formulation 102 % of control | endpoint: mean survival time, dose: 1.56 mg/kg/injection, schedule: Q01DX009 (ip), vehicle: saline 117 % of control | endpoint: mean survival time, dose: 1.56 mg/kg/injection, schedule: Q01DX009 (ip), vehicle: water 121 % of control and 106 % of control | endpoint: mean survival time, dose: 1.68 mg/kg/injection, schedule: Q01DX001 (ip), vehicle: water 124 % of control | endpoint: mean survival time, dose: 1.8 mg/kg/injection, schedule: Q04DX003 (ip), vehicle: saline 120 % of control | endpoint: mean survival time, dose: 2.0 mg/kg/injection, schedule: Q01DX005 (ip), vehicle: water 121 % of control and 124 % of control | endpoint: mean survival time, dose: 2.0 mg/kg/injection, schedule: Q03DX003 (ip), vehicle: saline 122 % of control | endpoint: mean survival time, dose: 2.0 mg/kg/injection, schedule: Q04DX003 (ip), vehicle: water 123 % of control and 102 % of control | endpoint: mean survival time, dose: 2.5 mg/kg/injection, schedule: Q01DX001 (ip), vehicle: water 118 % of control and 123 % of control and 112 % of control | endpoint: mean survival time, dose: 2.5 mg/kg/injection, schedule: Q07DX Z (oral), vehicle: clinical formulation 97 % of control | endpoint: mean survival time, dose: 2.5 mg/kg/injection, schedule: Q#B X Z (oral), vehicle: clinical formulation 94 % of control | endpoint: mean survival time, dose: 3.0 mg/kg/injection, schedule: Q01DX009 (ip), vehicle: saline 117 % of control | endpoint: mean survival time, dose: 3.0 mg/kg/injection, schedule: Q04DX003 (ip), vehicle: saline 115 % of control | endpoint: mean survival time, dose: 3.13 mg/kg/injection, schedule: Q01DX009 (ip), vehicle: water 117 % of control and 96 % of control | endpoint: mean survival time, dose: 4.0 mg/kg/injection, schedule: Q01DX005 (ip), vehicle: water 120 % of control and 105 % of control | endpoint: mean survival time, dose: 4.0 mg/kg/injection, schedule: Q01DX007 (ip), vehicle: saline 110 % of control | endpoint: mean survival time, dose: 4.0 mg/kg/injection, schedule: Q03DX003 (ip), vehicle: saline 116 % of control | endpoint: mean survival time, dose: 4.0 mg/kg/injection, schedule: Q04DX003 (ip), vehicle: water 100 % of control | endpoint: mean survival time, dose: 4.67 mg/kg/injection, schedule: Q01DX009 (ip), vehicle: water 108 % of control | endpoint: mean survival time, dose: 5.0 mg/kg/injection, schedule: Q01DX001 (ip), vehicle: water 120 % of control and 104 % of control | endpoint: mean survival time, dose: 5.0 mg/kg/injection, schedule: Q04DX003 (ip), vehicle: saline 120 % of control | endpoint: mean survival time, dose: 5.0 mg/kg/injection, schedule: Q07DX Z (oral), vehicle: clinical formulation 97 % of control | endpoint: mean survival time, dose: 5.0 mg/kg/injection, schedule: Q#B X Z (oral), vehicle: clinical formulation 97 % of control | endpoint: mean survival time, dose: 6.25 mg/kg/injection, schedule: Q01DX009 (ip), vehicle: saline 97 % of control | endpoint: mean survival time, dose: 8.0 mg/kg/injection, schedule: Q01DX001 (ip), vehicle: water 109 % of control | endpoint: mean survival time, dose: 8.0 mg/kg/injection, schedule: Q01DX009 (ip), vehicle: saline 100 % of control | endpoint: mean survival time, dose: 8.0 mg/kg/injection, schedule: Q04DX003 (ip), vehicle: saline 119 % of control | endpoint: mean survival time, dose: 8.0 mg/kg/injection, schedule: Q04DX003 (ip), vehicle: water 123 % of control | endpoint: mean survival time, dose: 10.0 mg/kg/injection, schedule: Q01DX001 (ip), vehicle: water 118 % of control and 112 % of control | endpoint: mean survival time, dose: 10.0 mg/kg/injection, schedule: Q07DX Z (oral), vehicle: clinical formulation 102 % of control | endpoint: mean survival time, dose: 10.0 mg/kg/injection, schedule: Q#B X Z (oral), vehicle: clinical formulation 108 % of control | endpoint: mean survival time, dose: 20.0 mg/kg/injection, schedule: Q01DX001 (ip), vehicle: water 89 % of control and 96 % of control | endpoint: mean survival time, dose: 20.0 mg/kg/injection, schedule: Q07DX Z (oral), vehicle: clinical formulation 100 % of control | endpoint: mean survival time, dose: 20.0 mg/kg/injection, schedule: Q#B X Z (oral), vehicle: clinical formulation 94 % of control | endpoint: mean survival time, dose: 40.0 mg/kg/injection, schedule: Q01DX001 (ip), vehicle: saline 62 % of control | endpoint: mean survival time, dose: 40.0 mg/kg/injection, schedule: Q07DX Z (oral), vehicle: clinical formulation 103 % of control | endpoint: mean survival time, dose: 40.0 mg/kg/injection, schedule: Q#B X Z (oral), vehicle: clinical formulation 103 % of control | endpoint: mean survival time, dose: 39.0 micrograms/kg/injection, schedule: Q01DX010 (oral), vehicle: saline 102 % of control | endpoint: mean survival time, dose: 78.0 micrograms/kg/injection, schedule: Q01DX010 (oral), vehicle: saline 102 % of control | endpoint: mean survival time, dose: 156.0 micrograms/kg/injection, schedule: Q01DX010 (oral), vehicle: saline 98 % of control | endpoint: mean survival time, dose: 313.0 micrograms/kg/injection, schedule: Q01DX010 (oral), vehicle: saline 102 % of control | endpoint: mean survival time, dose: 625.0 micrograms/kg/injection, schedule: Q01DX010 (oral), vehicle: saline 104 % of control | endpoint: mean survival time, dose: 1250.0 micrograms/kg/injection, schedule: Q01DX010 (oral), vehicle: saline 101 % of control | endpoint: median survival time, dose: 0.25 mg/kg/injection, schedule: Q01DX005 (iv), vehicle: water 112 % of control | endpoint: median survival time, dose: 0.5 mg/kg/injection, schedule: Q01DX005 (iv), vehicle: water 100 % of control | endpoint: median survival time, dose: 0.5 mg/kg/injection, schedule: Q04DX003 (ip), vehicle: water 99 % of control | endpoint: median survival time, dose: 1.0 mg/kg/injection, schedule: Q01DX005 (iv), vehicle: water 106 % of control | endpoint: median survival time, dose: 1.0 mg/kg/injection, schedule: Q04DX003 (ip), vehicle: water 99 % of control | endpoint: median survival time, dose: 2.0 mg/kg/injection, schedule: Q01DX005 (iv), vehicle: water 112 % of control | endpoint: median survival time, dose: 2.0 mg/kg/injection, schedule: Q04DX003 (ip), vehicle: water 100 % of control | endpoint: median survival time, dose: 4.0 mg/kg/injection, schedule: Q04DX003 (ip), vehicle: water 107 % of control | endpoint: median survival time, dose: 16.0 mg/kg/injection, schedule: Q04DX003 (ip), vehicle: water 109 % of control

CC(C)Oc1ccc2c(c1)Sc1ccc(Cl)cc1N2
inactive: endpoint: mean survival time, dose: 100.0 mg/kg/injection, schedule: Q04DX003 (ip), vehicle: saline with Tween-80 93 % of control | endpoint: mean survival time, dose: 200.0 mg/kg/injection, schedule: Q04DX003 (ip), vehicle: saline with Tween-80 96 % of control | endpoint: mean survival time, dose: 400.0 mg/kg/injection, schedule: Q04DX003 (ip), vehicle: saline with Tween-80 102 % of control

O=C(CSC1=NCCN1)c1ccccc1
inactive: endpoint: mean survival time, dose: 12.5 mg/kg/injection, schedule: Q01DX009 (ip), vehicle: saline 101 % of control | endpoint: mean survival time, dose: 25.0 mg/kg/injection, schedule: Q01DX009 (ip), vehicle: saline 101 % of control | endpoint: mean survival time, dose: 50.0 mg/kg/injection, schedule: Q01DX009 (ip), vehicle: saline 102 % of control
